Results on seven compounds are retold here after US20260285853A1, “COMPOUNDS AND METHODS FOR MODULATING SPLICING” (REMIX THERAPEUTICS INC., priority 2023, published 2026).

In general, AC50 refers to the concentration at which the activity in the assay is half-maximal. As usually defined, the IC50 is the midpoint of a concentration-inhibition curve. Broadly, the GI50 is the concentration giving 50% growth inhibition.

Holding throughout (type): cell-based
The test system of assay [1] is HTT mRNA. The experiment in a line: Splicing RT-qPCR assay (THP), Table 2A. Particulars: Table 2A (THP); for AC50: AJ mRNA increase, read-out: HTT AJ (increase in alternative junction mRNA, AC50); for IC50: CJ mRNA decrease, read-out: HTT CJ (decrease in canonical junction mRNA, IC50). A general note: Quantitative PCR measures a nucleic acid by following its amplification.

Assay [2] concerns SH-SY5Y (human neuroblastoma) cells. The experiment in a line: Cell viability, Cell Titer Glo 2.0 assay. Particulars: read-out: Viability SHSY5Y.3 GI50. The essentials:
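CellTiter-Glo 2.0 luminescence read-out after 72 h compound exposure (37 °C, 5% CO2); medium-only wells as blank. DMSO 0.1% final.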

Assay [3] concerns HTT mRNA. The experiment in a line: Gene panel canonical junction qPCR assay, decrease in CJ mRNA, Table 3. The settings on record: decrease in canonical junction (CJ) mRNA, gene panel qPCR, Table 3. The gist of the method: (§1)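 Cells: A673 or K562; 24 h compound exposure, 37 °C, 5% CO2; 11-pt 3-fold series from 10 uM final; DMSO ≤0.25%. Lysate → cDNA → qPCR with junction-spanning primers/probe for CJ transcript. ΔCt vs housekeeper, ΔΔCt vs DMSO, 2^(−ΔΔCt), % response, 4PL → IC50.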

Assay [4] relates to MYB mRNA. The assay is described as above. The settings on record: decrease in canonical junction (CJ) mRNA, gene panel qPCR, Table 3. The essentials: as §1
The subject of assay [5] is MYB mRNA. The experiment in a line: Splicing RT-qPCR assay (THP), Table 2A. The settings on record: Table 2A (THP); for AC50: AJ mRNA increase, read-out: MYB AJ (increase in alternative junction mRNA, AC50); for IC50: CJ mRNA decrease, read-out: MYB CJ (decrease in canonical junction mRNA, IC50).

For the compound `Cc1cc2cc(NC(=O)c3ccc(N4CCC(NC5CC5)CC4)c4cn(C)nc34)oc2c(C)n1` [Compound 451, 4-(4-(cyclopropylamino)piperidin-1-yl)-N-(5,7-dimethyl-furo-[2,3-c]pyridin-2-yl)-2-methyl-2H-indazole-7-carboxamide 2,2,2-trifluoroacetate], the half-maximal activity concentration (AC50) is greater than 10 µM in the assay on HTT mRNA [1] and 1 to 10 µM with MYB mRNA [5]. Also, the half-inhibitory concentration (IC50) in the assay with HTT mRNA [1] was greater than 10 µM; with HTT mRNA [3], greater than 10 µM; with MYB mRNA [4] it was 1 to 10 µM; in the assay with MYB mRNA [5], 1 to 10 µM. Besides, the GI50 in assay [2] was in the range of 0.1 to 1 µM.

In the case of `CCNC1CCN(c2ccc(C(=O)Nc3cn4cc(C)nc(C)c4c3OC)c3nn(C)cc23)CC1` [Compound 452, 4-(4-(ethylamino)-piperidin-1-yl)-N-(8-methoxy-1,3-dimethyl-pyrrolo[1,2-a]pyrazin-7-yl)-2-methyl-2H-indazole-7-carboxamide 2,2,2-trifluoroacetate], the AC50 with HTT mRNA [1] and in the assay on MYB mRNA [5] was greater than 10 µM throughout. Besides, the IC50 in the assay with HTT mRNA [1], with HTT mRNA [3], in the assay on MYB mRNA [4] and in the assay on MYB mRNA [5] was greater than 10 µM in each case. In addition, the concentration for 50% growth inhibition (GI50) in assay [2] was 1 to 10 µM.

Turning to `Cc1cn2cc(NC(=O)c3c(F)cc(N4CCC(NC5CC5)CC4)c4cn(C)nc34)c(F)c2c(C)n1` [Compound 453, 4-[4-(cyclopropylamino)-1-piperidyl]-6-fluoro-N-(8-fluoro-1,3-dimethyl-pyrrolo[1,2-a]pyrazin-7-yl)-2-methyl-indazole-7-carboxamide], the AC50 is greater than 10 µM with HTT mRNA [1] and less than 0.1 µM in the assay with MYB mRNA [5]. In addition, the concentration for half-maximal inhibition (IC50) in the assay on HTT mRNA [1] was greater than 10 µM; in the assay on HTT mRNA [3], greater than 10 µM; in the assay with MYB mRNA [4], 0.1 to 1 µM; in the assay on MYB mRNA [5], 0.1 to 1 µM. Besides, the 50% growth inhibitory concentration (GI50) in assay [2] fell in the range of 1 to 10 µM.

With `COc1cc2nn(C)cc2cc1NC(=O)c1c(F)cc(NCC2CCNCC2)c2cn(C)nc12` [Compound 454, 6-fluoro-N-(6-methoxy-2-methyl-indazol-5-yl)-2-methyl-4-(4-piperidylmethylamino)indazole-7-carboxamide], the AC50 in the assay with HTT mRNA [1] is greater than 10 µM; in the assay on MYB mRNA [5], 1 to 10 µM. In addition, the 50% inhibitory concentration (IC50) in the assay with HTT mRNA [1], with HTT mRNA [3], in the assay with MYB mRNA [4] and in the assay with MYB mRNA [5] was greater than 10 µM throughout. Besides, in assay [2], the GI50 was greater than 10 µM.

For `COc1cc2nn(C)cc2cc1NC(=O)c1c(F)cc(N2CC3(CNC3)C2)c2cn(C)nc12` [Compound 455, 4-(2,6-diazaspiro[3.3]-heptan-2-yl)-6-fluoro-N-(6-methoxy-2-methyl-indazol-5-yl)-2-methyl-indazole-7-carboxamide], the AC50 is greater than 10 µM in the assay on HTT mRNA [1] and 1 to 10 µM in the assay with MYB mRNA [5]. Also, the IC50 in the assay on HTT mRNA [1] is greater than 10 µM; in the assay with HTT mRNA [3], greater than 10 µM; in the assay on MYB mRNA [4], 1 to 10 µM; in the assay on MYB mRNA [5] it was 1 to 10 µM. In addition, in assay [2], the 50% growth inhibitory concentration (GI50) was greater than 10 µM.

For the compound `Cc1cc2cc(NC(=O)c3c(F)cc(N4CCC(NC5CC5)CC4)c4cn(C)nc34)oc2c(C)n1` [Compound 456, 4-[4-(cyclopropylamino)-1-piperidyl]-N-(5,7-dimethylfuro-[2,3-c]pyridin-2-yl)-6-fluoro-2-methyl-indazole-7-carboxamide], the AC50 in the assay on HTT mRNA [1] is greater than 10 µM; in the assay with MYB mRNA [5], less than 0.1 µM. The half-maximal inhibitory concentration (IC50) in the assay on HTT mRNA [1] was greater than 10 µM; with HTT mRNA [3] it was greater than 10 µM; in the assay with MYB mRNA [4] it was 0.1 to 1 µM; with MYB mRNA [5] it was 0.1 to 1 µM. For the same compound, the GI50 in assay [2] lay in the range of 1 to 10 µM.

Regarding `COc1c(NC(=O)c2ccc(N3CCC(NC4CC4)CC3)c3cn(C)nc23)cn2cc(C)nc(C)c12` [Compound 457, 4-[4-(cyclopropylamino)-1-piperidyl]-N-(8-methoxy-1,3-dimethyl-pyrrolo[1,2-a]pyrazin-7-yl)-2-methyl-indazole-7-carboxamide], the AC50 in the assay with HTT mRNA [1] and with MYB mRNA [5] was 1 to 10 µM throughout. Besides, the IC50 in the assay on HTT mRNA [1], in the assay on HTT mRNA [3], in the assay on MYB mRNA [4] and with MYB mRNA [5] was 1 to 10 µM each time. Also, in assay [2], the concentration for 50% growth inhibition (GI50) fell in the range of 1 to 10 µM.
